Results taken from patent US5395610A, “Agents for potentiating the effects of antitumor agents and combating multiple drug resistance” (Burroughs-Wellcome Co., priority 1989, dated 1995).
Structures can show the parent of a compound that is named as a salt.

Columns and labels:
in vitro = assay type: cell-based, Chinese hamster; conditions: hamster, cho auxb1 cells
[1] = In vitro cytotoxicity / potentiation of Actinomycin D in Chinese hamster ovary cells, drug resistant C5S32 (MTT); assay type: cell-based; conditions: hamster, cho c5s32 cells, fraction of untreated cultures (1.00), read-out: Cytotoxicity, normalized absorbance, Drug Resistant C5S32, 0 (no Act D); for viability at 96 h, 1 µM: 1 μM potentiating agent alone; for viability at 96 h, 10 µM: 10 μM potentiating agent alone
[2] = tested on: Chinese hamster ovary (CHO) cells, drug resistant C5S32; experiment: as above; assay type: cell-based; conditions: 96 h, fraction of Act D alone (1.00)
[3] = In vitro cytotoxicity / potentiation of Actinomycin D in human KB epidermoid carcinoma cells, wildtype KB 3-1 (MTT); assay type: cell-based; conditions: human, kb 3-1 cells, fraction of untreated cultures, read-out: Cytotoxicity, normalized absorbance, Wildtype KB 3-1, 0 (no Act D); for viability at 96 h, 1 µM: 1 μM potentiating agent alone; for viability at 96 h, 10 µM: 10 μM potentiating agent alone
[4] = tested on: human KB epidermoid carcinoma cells, wildtype KB 3-1; experiment: as above; assay type: cell-based; conditions: 96 h, fraction of Act D alone
[5] = In vitro cytotoxicity / potentiation of Actinomycin D in human KB epidermoid carcinoma cells, drug resistant KB V-1 (MTT); assay type: cell-based; conditions: human, kb v-1 cells, fraction of untreated cultures, read-out: Cytotoxicity, normalized absorbance, Drug Resistant KB V-1, 0 (no Act D); for viability at 96 h, 1 µM: 1 μM potentiating agent alone; for viability at 96 h, 10 µM: 10 μM potentiating agent alone
[6] = tested on: human KB epidermoid carcinoma cells, drug resistant KB V-1; experiment: as above; assay type: cell-based; conditions: 96 h, fraction of Act D alone
[7] = 1 μM potentiating agent + Act D 0.5 μM
[8] = 10 μM potentiating agent + Act D 0.5 μM
[9] = 1 μM potentiating agent + Act D 0.1 nM
[10] = 10 μM potentiating agent + Act D 0.1 nM
[11] = 1 μM potentiating agent + Act D 20 nM
[12] = 10 μM potentiating agent + Act D 20 nM

Compound | viability at 96 h, 1 µM (in vitro) [%] | viability at 96 h, 10 µM (in vitro) [%] | viability at 96 h, 1 µM [1] [%] | viability at 96 h, 10 µM [1] [%] | Synergism with Actinomycin D, normalized absorbance, Drug Resistant C5S32, +ACT D [2, 7] | Synergism with Actinomycin D, normalized absorbance, Drug Resistant C5S32, +ACT D [2, 8] | viability at 96 h, 1 µM [3] [%] | viability at 96 h, 10 µM [3] [%] | Synergism with Actinomycin D, normalized absorbance, Wildtype KB 3-1, +ACT D [4, 9] | Synergism with Actinomycin D, normalized absorbance, Wildtype KB 3-1, +ACT D [4, 10] | viability at 96 h, 1 µM [5] [%] | viability at 96 h, 10 µM [5] [%] | Synergism with Actinomycin D, normalized absorbance, Drug Resistant KB V-1, +ACT D [6, 11] | Synergism with Actinomycin D, normalized absorbance, Drug Resistant KB V-1, +ACT D [6, 12]
CN(C)CC/C=C1/c2ccccc2COc2ccc(Br)cc21.Cl.Cl.Cl [(A), (Z)-3-(2-Bromo-6,11-dihydrodibenz [b,e]oxepin-11-ylidene)-N,N-dimethylpropylamine trihydrochloride] | 100 | 100 | 85 | 42 | 0.71 | 0.22 | 99 | 98 | 0.88 | 1.00 | 100 | 75 | 0.99 | 0.21
CN(C)CC/C=C1\c2ccccc2COc2ccc(Br)cc21 [(B), (E)-3-(2-Bromo-6,11-dihydrodibenz [b,e]oxepin-11-ylidene)-N,N-dimethylpropylamine 3/2 hydrochloride] | 98 | 87 | 83 | 55 | 0.82 | 0.37 | 100 | 83 | – | 0.91 | 100 | 44 | – | 0.01
CN(C)CC/C=C1/c2cc(Br)ccc2COc2ccccc21 [(C), (Z)-3-(9-Bromo-6,11-dihydrodibenz [b,e]oxepin-11-ylidene)-N,N-dimethylpropylamine] | 100 | 92 | 100 | 100 | 0.90 | 0.54 | 100 | 100 | 0.78 | 0.75 | 100 | 34 | 0.97 | 0.36
CN(C)CC/C=C1/c2ccccc2COc2c(Br)cccc21 [(D), (Z)-3-(4-Bromo-6,11-dihydrodibenz [b,e]oxepin-11-ylidene)-N,N-dimethylpropylamine] | 100 | 100 | 89 | 34 | 0.71 | 0.31 | 88 | 51 | 0.86 | 0.65 | 75 | 36 | 0.78 | 0.01
CN(C)CC/C=C1/c2ccccc2COc2cc(Br)ccc21 [(E)] | 100 | 100 | 85 | 48 | 0.66 | 0.35 | 89 | 89 | 0.85 | 0.77 | 88 | 45 | 0.74 | 0.01
Brc1ccc2c(c1)/C(=C\CN1CCCC1)c1ccccc1CO2 [(F), (Z)-1-[2-(2-Bromo-6,11-dihydrodibenz [b,e]-oxepin-11-ylidene)ethyl]pyrrolidine] | 100 | 88 | 82 | 28 | 0.68 | 0.19 | 84 | 78 | 0.86 | 0.68 | 80 | 59 | 0.77 | 0.12
